Active and inactive are the calls of the source.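 The calls were made as follows: active = in confirmatory dose-response testing, peak deubiquitinase inhibition of 30% or more; inactive = the rest.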

For 63 compounds, IC50 results are on record in PubChem BioAssay AID1645866 (Buhrlage Lab, Dana-Farber Cancer Institute and Novartis …, 2021).

The target in the experiment is Ubiquitin carboxyl-terminal hydrolase 28 (Homo sapiens) (UniProt Q96RU2). Briefly: Ubiquitin-specific peptidase 28 DUB inhibitors, biochemical concentration-dependence assay, validation of primary screening hits (AID 1645866). The note with it: purified USP28, ubiquitin-rhodamine fluorescence, 30 min.
Sequence of Ubiquitin carboxyl-terminal hydrolase 28 (Homo sapiens) (Q96RU2 whole entry, looked up): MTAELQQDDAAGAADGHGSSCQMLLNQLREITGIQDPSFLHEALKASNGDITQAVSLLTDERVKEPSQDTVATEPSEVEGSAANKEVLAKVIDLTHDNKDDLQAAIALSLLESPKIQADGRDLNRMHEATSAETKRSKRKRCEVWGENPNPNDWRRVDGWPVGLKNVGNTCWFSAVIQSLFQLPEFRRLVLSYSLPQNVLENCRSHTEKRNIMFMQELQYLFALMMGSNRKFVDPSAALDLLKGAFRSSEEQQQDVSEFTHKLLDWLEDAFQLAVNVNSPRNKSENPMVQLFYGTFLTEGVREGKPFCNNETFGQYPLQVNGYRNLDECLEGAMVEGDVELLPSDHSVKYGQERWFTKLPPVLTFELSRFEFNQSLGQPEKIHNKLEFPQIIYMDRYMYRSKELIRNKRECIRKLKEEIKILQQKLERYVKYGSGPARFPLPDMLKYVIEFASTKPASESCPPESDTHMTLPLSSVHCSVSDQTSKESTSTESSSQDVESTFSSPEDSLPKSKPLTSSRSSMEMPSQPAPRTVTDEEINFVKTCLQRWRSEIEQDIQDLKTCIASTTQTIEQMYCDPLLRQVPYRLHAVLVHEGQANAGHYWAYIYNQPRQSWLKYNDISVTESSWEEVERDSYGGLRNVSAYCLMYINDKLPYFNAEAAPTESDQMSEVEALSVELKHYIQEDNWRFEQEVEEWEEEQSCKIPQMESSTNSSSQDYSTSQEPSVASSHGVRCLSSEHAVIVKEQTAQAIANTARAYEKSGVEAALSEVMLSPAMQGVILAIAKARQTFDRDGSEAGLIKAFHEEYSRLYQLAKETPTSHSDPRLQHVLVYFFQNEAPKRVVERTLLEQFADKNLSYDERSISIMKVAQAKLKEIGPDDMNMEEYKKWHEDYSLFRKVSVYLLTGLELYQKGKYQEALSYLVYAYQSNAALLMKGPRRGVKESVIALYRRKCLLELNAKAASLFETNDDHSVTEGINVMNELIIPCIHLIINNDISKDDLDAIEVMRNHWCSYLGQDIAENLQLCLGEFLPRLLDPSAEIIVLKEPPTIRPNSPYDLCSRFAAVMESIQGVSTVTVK
As to `O=C1CC(C(=O)Nc2ccc(F)cc2)n2nc(SCc3ccccc3)nc2N1` (stereo not drawn), the IC50 (as a rule, the concentration that inhibits the measured activity by half) is 29.3 µM. As for `COC(=O)c1cc2c(ccn2C)n1CC(=O)NC1CCCC1`, the IC50 was > 50 µM (inactive). For the compound `O=C(O)Cc1ccc(Nc2nc3ccccc3n3nnnc23)cc1`, the IC50 was > 50 µM (inactive). As to `COc1ccc(C)cc1NC(=O)CSc1nc(C)nc2c1oc1ccccc12`, the IC50 was 22 µM. Take `CC1(C(=O)NCc2ccccc2)Cn2c(cc3ccccc32)C(=O)N1Cc1ccccc1` (stereo not drawn): the half-maximal inhibitory concentration (IC50) is 48.7 µM. With `COc1cccc2sc(N3CCN(c4nc5ccccc5s4)CC3)nc12`, the IC50 is > 50 µM (inactive). For the compound `CC(C)Cc1nc2sc3c(NCc4ccccc4)ncnc3c2c2c1COC(C)(C)C2`, the IC50 is 6.15 µM. The same measure for `COc1ccc(-n2ccn3c(CCC(=O)NCc4ccc(F)cc4)nnc3c2=O)cc1`: 25.3 µM. The result for `CN(CCc1ccccc1)c1nccc(N2CCN(C(=O)c3csc(-c4cccnc4)n3)CC2)n1` reads > 50 µM (inactive). Consider `O=C(Nc1ccc2c(c1)OCCO2)c1ccc(N2CCCCC2)nn1`, for which the IC50 is 31.6 µM.

Turning to `Cc1ccc(NC(=O)c2sc3ncn(CC(=O)N4CCN(c5ccccn5)CC4)c(=O)c3c2C)c(Br)c1`, the IC50 is 16.1 µM. For the compound `N#Cc1ccc(-c2ccc(OCC(=O)Nc3ccc4c(c3)OCO4)cc2)cc1`, the IC50 is 11.5 µM. The same measure for `Cc1ccccc1C(=O)OCCN1C(=O)c2cccc3c(N4CCOCC4)ccc(c23)C1=O`: > 50 µM (inactive); for `Cc1ccc2c(c1C)NC(=O)[C@]21[C@@H]2C(=O)N(c3cccc(Cl)c3)C(=O)[C@@H]2[C@@H]2CCCN21`: > 50 µM (inactive); for `COc1ccccc1-c1ccc(CN2[C@@H](c3ccccc3)C[C@@H]3NC(=O)CCC[C@H]32)cc1`: > 50 µM (inactive).

With `CC[C@H](C)[C@H](NC(=O)[C@H]([C@@H](C)CC)N(C)C(C)=O)C(=O)N[C@H](C(=O)N[C@@H](CC(C)C)C(=O)C1(C)CO1)[C@@H](C)O` (stereo partly drawn), the IC50 was > 50 µM (inactive). With `COc1ccc(-c2cc(-c3ccc(O)cc3)nc(N)c2C#N)cc1OC`, the IC50 is 32.6 µM. On to `COc1cc(O)c2c(c1)C1=CC(=O)C(O)=C[C@]1(C)OC2=O`, for which the IC50 was 30.1 µM. The result for `Cc1ccc(C)c(NC(=O)CCc2nc(CSc3nc4ccccc4o3)no2)c1` reads 13.4 µM; that for `CCOc1ccc(C2=NCCNC3=C2C(c2ccccc2)N(c2ccccc2)C3=O)cc1` (stereo not drawn), > 50 µM (inactive); that for `COc1ccc(C)cc1NC(=O)C(NS(=O)(=O)c1ccc2c(c1)CCN2C(C)=O)C(C)C` (stereo not drawn), > 50 µM (inactive).

For `CC(C)c1ccc(C(C(=O)NC2CCCCC2)N(C(=O)c2cnccn2)c2cccc(F)c2)cc1` (stereo not drawn), the IC50 was 23 µM. The same measure for `O=C(Cn1cnc2ccccc21)Nc1ccc2c(c1)CCC2`: 28.7 µM; for `COc1ccccc1-c1nc2c3c(C)c(C)n(Cc4cccnc4)c3ncn2n1`: 20.4 µM. The same measure for `Cc1cc(C(=O)N2CCOC3(CC=CCN(CCc4ccccc4)C3=O)C2)n2nccc2n1` (stereo not drawn): > 50 µM (inactive); for `Cc1cc(C(=O)CSc2nc3ccccc3[nH]2)c(C)n1Cc1ccco1`: 36.2 µM; for `CCCCN1CC(C(=O)Nc2ccc(C(=O)Nc3ccc(Cl)cc3)cc2)CC1=O` (stereo not drawn): 10.5 µM.

For the compound `O=C(Cc1ccccc1F)Nc1nc(-c2ccco2)c(-c2ccco2)s1`, the IC50 was > 50 µM (inactive).

With `COc1cccc(CNC(=O)c2ccc3c(c2)NC(=O)C2CCCN32)c1OC` (stereo not drawn), the IC50 is > 50 µM (inactive). For `O=C(Cn1cncc(-c2nc(-c3ccccc3)cs2)c1=O)NC1CCCC1`, the IC50 is 36.5 µM. With `Cn1c(CCNC(=O)c2[nH]nc3c2CCc2ccccc2-3)nc2ccccc21`, the IC50 is 23.7 µM. As to `COC(=O)COc1ccc(/C=N/NC(=O)c2ccc(CN3CCc4ccccc4C3)cc2)cc1`, the IC50 was 11.1 µM. `Cc1nc(-c2cccc(NC(=O)C3CCN(c4ccccc4)C3=O)c2)no1` (stereo not drawn): the IC50 is 27.3 µM. As for `COC(=O)c1ccc2c(=O)n(CCCCCC(=O)NCCc3ccc(S(N)(=O)=O)cc3)c(=O)[nH]c2c1`, the IC50 was 8.65 µM.

As to `CC(C)(C)C(=O)Nc1ccc(SCc2nnc(-c3ccccc3)o2)cc1`, the IC50 was 21.8 µM. The result for `CC1CCN(c2cc(-n3cnc(C(=O)N4CCCCC4)c3)ncn2)CC1` reads 25.9 µM. With `COc1ccc(C(=O)Nc2sc3c(c2C(=O)NCc2cccnc2)CCCC3)cc1`, the IC50 is 11.8 µM. As for `O=C(Cn1c(=O)nc(-c2ccccc2)c2ccccc21)NCc1ccc2c(c1)OCO2`, the IC50 was 27.9 µM. Take `COc1cc2c(c3oc4cccc(O)c4c(=O)c13)C1C=COC1O2` (stereo not drawn): the IC50 was 36.7 µM. Take `COc1ccccc1NC(=O)CSC1=NC2(CCCCC2)Nc2ccccc21`: the IC50 is > 50 µM (inactive).

With `COc1ccc(CCNC(=O)CCCn2c(=O)c3ccccc3n(CC(=O)OCc3ccccc3)c2=O)cc1OC`, the IC50 is 16 µM. The same measure for `O=C(O)c1ccc(C2Cc3c([nH]c(=O)[nH]c3=O)O2)cc1` (stereo not drawn): 6.53 µM; for `Clc1cccc(N2CCN(c3ncnc4nc[nH]c34)CC2)c1`: 39.5 µM; for `CCc1noc(-c2ccc(OCC(=O)Nc3ccc(C)cc3C)cc2)n1`: 33.7 µM. Regarding `C/C=C\C1=CC(=O)[C@]23C[C@H]2[C@]2(C)CO[C@@]1(O)[C@@]3(O)O2`, the IC50 is > 50 µM (inactive).

Turning to `CNC(=O)c1c2n(c3ncccc13)CCN(S(=O)(=O)c1ccc(-c3ccccc3)cc1)C2`, the IC50 is 10.2 µM. The result for `O=C(COC(=O)c1cc(Cl)c2c(c1)OCO2)Nc1ccc2[nH]c(=O)[nH]c2c1` reads 2.92 µM. The same measure for `COc1ccc(C2CC(c3ccccc3)N(C(=O)C3CC3)c3ncnn32)cc1` (stereo not drawn): > 50 µM (inactive); for `O=C(COc1ccc2c(c1)CCC2)Nc1ccc2c(c1)CCC2`: 37.7 µM; for `O=C(c1ccsc1)N1CCC2(C1)Nc1cccnc1NC2=NC1CCCC1` (stereo not drawn): > 50 µM (inactive).

For `CCOc1ccc(-c2cc3nc(C4CCN(C(=O)OC(C)(C)C)CC4)c(C(=O)Nc4cc(F)ccc4F)cn3n2)cc1`, the IC50 is > 50 µM (inactive).

Turning to `O=C(Nc1ccccc1)c1cn2c3c(cccc3c1=O)CC2`, the IC50 was 31.9 µM. Turning to `c1ccc(-c2ccc(NCc3ccc4c(c3)OCO4)nn2)cc1`, the half-inhibitory concentration (IC50) was 6.27 µM. Take `CC(=O)c1ccc(NC(=O)c2ccc(N3CCCCS3(=O)=O)cc2Cl)cc1`: the IC50 is 26.6 µM. Turning to `COc1ccc(S(=O)(=O)N2CCC3(CC2)OC(=O)Nc2ccccc23)cc1`, the half-maximal inhibitory concentration (IC50) was 43.4 µM. For `Cc1ccc(-c2nc(-c3ccccc3)c(S(=O)(=O)CC(=O)Nc3ccc(C)c(C)c3)[nH]2)cc1`, the IC50 was 42.3 µM. As for `COc1ccc(-c2nc(SCC(=O)Nc3ccc(Cl)cc3F)n[nH]2)cc1`, the IC50 is > 50 µM (inactive). On to `COc1ccc(OC)c2c(C)cc(N3CCN(S(=O)(=O)c4ccc5c(c4)CCCN5S(C)(=O)=O)CC3)nc12`, for which the IC50 is 17.9 µM.

On to `Cc1ccc(NC(=O)c2cnc(N3CCOCC3)nc2)cc1F`, for which the IC50 is 33.3 µM. The same measure for `Cc1cc(C(F)(F)F)n(-c2ccc(NC(=O)Nc3cccc(C(F)(F)F)c3)cc2)n1`: 5.05 µM. For the compound `O=C(NCc1ccccc1Cl)c1ccc(-c2nnc(-c3ccccc3)o2)cc1`, the IC50 is 2.13 µM. Turning to `COc1ccc(CCNC(=O)CSc2cn(CCNC(=O)c3ccc(F)cc3)c3ccccc23)cc1OC`, the IC50 is 28.1 µM. Regarding `O=C(COC(=O)c1cc(Cl)ccc1O)Nc1ccc2c(c1)OCCO2`, the IC50 is 24.3 µM.
